Earlier results on two compounds are cited in US12005094B2, “Inhibitor of inflammatory conditions” (Compton Developments Ltd., priority 2009, dated 2024).

For one data set, the system named is EAE. Conditions: Clomipramine vs vehicle control, divergent from day 10.
Data set [1] deals with antigen-induced arthritis. The settings on record: oral administration.
In a further data set the test system is ear edema. Conditions: topical.
Data set [2] deals with skin edema and hyperplasia. The settings on record: topical administration.

For `CN(C)CCCN1c2ccccc2CCc2ccc(Cl)cc21` [Clomipramine], the “onset of disease symptoms (average EAE scores)” value with EAE is recorded as “delayed”.

As to `C=C(C)[C@@H]1CC[C@]2(C)CC[C@]3(C)[C@H](CC[C@@H]4[C@@]5(C)CC[C@H](O)C(C)(C)[C@@H]5CC[C@]43C)[C@@H]12` [Lupeol, lupeol], the “effect on lipoxygenase products” value in the data set with lipoxygenase products is “no effect on lipoxygenase products”. The “reduction in paw swelling” value in data set [1] is listed as 39%. Besides, in the data set on ear edema, the PGE2 result is “significant reduction in PGE2”, the ear edema entry is listed as “suppressed ear edema” and the nitrite release entry is “weaker inhibition of nitrite release”. In addition, in data set [2], the “skin edema and hyperplasia” value was “significantly inhibited skin edema and hyperplasia”.
